In patent US7446199B2, “Compositions useful as inhibitors of protein kinases” (Vertex Pharmaceuticals Incorporated, priority 2003, dated 2008):

How the values were obtained:
Assay type in all cases: biochemical
JAK3 = biological target: T1, JAK3 (Homo sapiens, UniProt P52333); assay: JAK3 inhibition assay (ELISA, Poly (Glu, Ala, Tyr) coated plates); conditions: 2 mM ATP, 60 minutes at 30° C.
T1 sequence (P52333 1-1124): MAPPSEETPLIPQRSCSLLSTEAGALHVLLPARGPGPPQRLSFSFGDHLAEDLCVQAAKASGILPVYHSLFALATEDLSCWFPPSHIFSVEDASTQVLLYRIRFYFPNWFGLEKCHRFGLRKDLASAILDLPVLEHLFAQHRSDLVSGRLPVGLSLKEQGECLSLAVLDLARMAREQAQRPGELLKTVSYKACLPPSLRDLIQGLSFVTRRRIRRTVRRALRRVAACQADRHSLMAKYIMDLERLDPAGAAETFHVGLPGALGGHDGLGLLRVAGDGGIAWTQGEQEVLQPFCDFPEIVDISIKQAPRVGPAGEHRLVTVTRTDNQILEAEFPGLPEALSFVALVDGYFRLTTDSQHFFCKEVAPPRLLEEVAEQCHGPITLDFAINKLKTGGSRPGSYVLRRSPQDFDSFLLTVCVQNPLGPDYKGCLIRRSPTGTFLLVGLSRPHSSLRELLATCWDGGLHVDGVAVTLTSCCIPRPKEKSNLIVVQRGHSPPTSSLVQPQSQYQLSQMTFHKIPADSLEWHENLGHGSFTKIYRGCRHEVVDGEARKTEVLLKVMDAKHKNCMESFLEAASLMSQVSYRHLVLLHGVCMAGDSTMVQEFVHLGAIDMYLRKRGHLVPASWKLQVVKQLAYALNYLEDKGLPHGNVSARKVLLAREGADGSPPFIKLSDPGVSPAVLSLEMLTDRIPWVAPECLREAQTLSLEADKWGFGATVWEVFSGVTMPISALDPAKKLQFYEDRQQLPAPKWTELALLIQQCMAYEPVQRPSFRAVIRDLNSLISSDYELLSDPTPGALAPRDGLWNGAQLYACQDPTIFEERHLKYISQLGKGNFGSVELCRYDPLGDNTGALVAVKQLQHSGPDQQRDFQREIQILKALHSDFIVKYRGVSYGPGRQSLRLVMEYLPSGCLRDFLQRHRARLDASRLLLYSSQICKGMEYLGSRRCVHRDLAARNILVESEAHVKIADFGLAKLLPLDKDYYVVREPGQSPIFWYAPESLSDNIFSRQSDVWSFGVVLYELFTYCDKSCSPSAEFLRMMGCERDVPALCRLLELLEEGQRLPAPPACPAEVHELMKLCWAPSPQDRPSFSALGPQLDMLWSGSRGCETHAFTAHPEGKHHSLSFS
Summary of the method: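 ELISA on Poly(Glu,Ala,Tyr) 6:3:1-coated plates with 2 mM ATP and 5 mM MgCl2. JAK enzyme started the reaction, run 60 min at 30° C. Phosphotyrosine was detected with HRP-conjugated 4G10 antibody and TMB, read at 450 nm, and IC50 was derived from optical densities.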

KDR = KDR (Homo sapiens, UniProt P35968); assay: KDR enzyme assay, coupled enzyme assay; conditions: 300 μM ATP, 10 μM poly E4Y, 30 nM KDR, 37° C.
Summary of the method: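 Coupled enzyme (PK/LDH, NADH) assay with 30 nM KDR in 200 mM HEPES 7.5, 10 mM MgCl2, 25 mM NaCl, 1 mM DTT, 1.5% DMSO; 300 μM ATP, 10 μM poly E4Y. Compound at 30 μM final, preincubated ~10 min at 37 °C before ATP start; rates read over 5 min at 37 °C.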

GSK-3β, (AA 1-420) = GSK-3β, (AA 1-420) (Homo sapiens, UniProt P49841); assay: GSK-3 inhibition assay, coupled enzyme system; conditions: 20 μM ATP, 300 μM peptide, 20 nM GSK-3b, 30° C.; read-out: Ki values (GSK3)
Summary of the method: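 Pyruvate kinase/lactate dehydrogenase-coupled NADH assay with 20 nM enzyme, 20 μM ATP and 300 μM peptide in HEPES pH 7.5, 1.5% DMSO, 30° C. Compound (0.002–30 μM, 12-point) preincubated 10 min before ATP start; rates over 10 min gave Ki.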

Chain of GSK-3β, (AA 1-420) (P49841 whole entry, the tested form may be a part): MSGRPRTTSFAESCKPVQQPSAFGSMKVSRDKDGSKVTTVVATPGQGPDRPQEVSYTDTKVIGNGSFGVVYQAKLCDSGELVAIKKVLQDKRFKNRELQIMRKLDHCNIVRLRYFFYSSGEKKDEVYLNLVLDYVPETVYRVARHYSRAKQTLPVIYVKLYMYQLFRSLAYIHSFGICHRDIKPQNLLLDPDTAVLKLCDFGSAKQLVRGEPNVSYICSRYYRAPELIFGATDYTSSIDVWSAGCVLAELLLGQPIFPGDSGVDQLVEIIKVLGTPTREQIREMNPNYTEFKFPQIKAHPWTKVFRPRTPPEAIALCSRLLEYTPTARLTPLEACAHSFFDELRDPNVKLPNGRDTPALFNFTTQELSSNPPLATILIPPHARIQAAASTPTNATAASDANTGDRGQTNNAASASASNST
Chain of KDR (P35968 20-1356): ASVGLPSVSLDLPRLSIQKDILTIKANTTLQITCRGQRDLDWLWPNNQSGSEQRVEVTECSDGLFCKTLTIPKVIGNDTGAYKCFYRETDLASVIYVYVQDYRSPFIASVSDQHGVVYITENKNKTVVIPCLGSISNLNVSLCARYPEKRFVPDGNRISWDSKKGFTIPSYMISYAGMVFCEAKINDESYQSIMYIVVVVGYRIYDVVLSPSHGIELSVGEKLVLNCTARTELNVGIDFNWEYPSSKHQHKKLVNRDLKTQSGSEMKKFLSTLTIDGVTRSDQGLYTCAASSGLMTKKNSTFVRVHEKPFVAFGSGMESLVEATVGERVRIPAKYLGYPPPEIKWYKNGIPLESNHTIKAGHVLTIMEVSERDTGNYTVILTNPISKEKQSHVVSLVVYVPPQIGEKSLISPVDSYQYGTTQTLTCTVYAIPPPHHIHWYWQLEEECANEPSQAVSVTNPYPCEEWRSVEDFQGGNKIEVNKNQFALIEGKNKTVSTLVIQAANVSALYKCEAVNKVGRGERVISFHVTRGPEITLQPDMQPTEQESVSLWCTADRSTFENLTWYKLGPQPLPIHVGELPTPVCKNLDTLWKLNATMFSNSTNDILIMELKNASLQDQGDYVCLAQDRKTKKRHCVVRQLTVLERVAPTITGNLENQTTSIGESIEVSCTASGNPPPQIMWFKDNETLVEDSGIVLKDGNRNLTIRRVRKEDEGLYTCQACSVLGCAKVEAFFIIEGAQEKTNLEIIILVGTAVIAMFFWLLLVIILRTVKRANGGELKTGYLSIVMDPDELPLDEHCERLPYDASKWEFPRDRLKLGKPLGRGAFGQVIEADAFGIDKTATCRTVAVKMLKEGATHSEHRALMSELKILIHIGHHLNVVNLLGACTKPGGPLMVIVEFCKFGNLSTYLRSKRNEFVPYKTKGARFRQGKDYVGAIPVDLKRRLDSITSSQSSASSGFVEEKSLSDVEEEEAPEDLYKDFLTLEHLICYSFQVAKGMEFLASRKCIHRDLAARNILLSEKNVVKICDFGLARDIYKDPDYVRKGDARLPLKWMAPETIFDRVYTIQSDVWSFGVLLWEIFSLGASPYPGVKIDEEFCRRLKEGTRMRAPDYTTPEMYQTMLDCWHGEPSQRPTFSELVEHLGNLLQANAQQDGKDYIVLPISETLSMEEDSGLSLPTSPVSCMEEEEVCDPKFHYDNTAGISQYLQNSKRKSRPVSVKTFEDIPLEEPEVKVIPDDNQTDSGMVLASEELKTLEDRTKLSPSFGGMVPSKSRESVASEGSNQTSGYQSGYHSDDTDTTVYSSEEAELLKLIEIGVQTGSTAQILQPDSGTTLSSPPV

| Ki (JAK3) [nM] | Ki (KDR) [nM] | Ki (GSK-3β, (AA 1-420)) [nM] | SMILES |
| --- | --- | --- | --- |
| 1000 to 12500 | 200 to 1000 | 200 to 1000 | CN1CCCN(c2ccc(-c3cnc4[nH]cc(-c5nncn5-c5cccc(F)c5F)c4c3)cn2)CC1 [Compound 117, 3-[4-(2,3-Difluoro-phenyl)-4H-[1,2,4]triazol-3-yl]-5-[6-(4-methyl-[1,4]diazepan-1-yl)-pyridin-3-yl]-1H-pyrrolo [2,3-b]-pyridine] |
| < 200 | 200 to 1000 | < 200 | Cc1noc(-c2c[nH]c3ncc(-c4ccc(N5CCN(C)CC5)cc4)cc23)c1-c1cccc(F)c1F [Compound 135, 3-[4-(2,3-Difluoro-phenyl)-3-methyl-isoxazol-5-yl]-5-[4-(4-methyl-piperazin-1-yl)-phenyl]-1H-pyrrolo[2,3-b]pyridine] |
| < 200 | 200 to 1000 | < 200 | Fc1cccc(-c2cnoc2-c2c[nH]c3ncc(C4=CCC(N5CCOCC5)CC4)cc23)c1F (stereo not drawn) [Compound 139, 3-[4-(2,3-Difluoro-phenyl)-isoxazol-5-yl]-5-(4-morpholin-4-yl-cyclohex-1-enyl)-1H-pyrrolo[2,3-b]pyridine] |
| 200 to 1000 | 200 to 1000 | 200 to 1000 | Fc1cccc(-n2cnnc2-c2c[nH]c3ncc(-c4ccc(N5CCCC5)nc4)cc23)c1F [Compound 118, 3-[4-(2,3-Difluoro-phenyl)-4H-[1,2,4]triazol-3-yl]-5-(6-pyrrolidin-1-yl-pyridin-3-yl)-1H-pyrrolo[2,3-b]pyridine] |
| < 200 | < 200 | < 200 | Fc1cccc(-c2cnoc2-c2c[nH]c3ncc(/C=C/n4cncn4)cc23)c1F [Compound 133, 3-[4-(2,3-Difluoro-phenyl)-isoxazol-5-yl]-5-(2-[1,2,4]triazol-1-yl-vinyl)-1H-pyrrolo[2,3-b]pyridine] |

Second part, the molecule before the results:

| SMILES | Ki (JAK3) [nM] | Ki (KDR) [nM] | Ki (GSK-3β, (AA 1-420)) [nM] |
| --- | --- | --- | --- |
| COc1cnc2[nH]cc(-c3oncc3-c3cccc(Cl)c3Cl)c2c1 [Compound 49, 3-[4-(2,3-Dichloro-phenyl)-isoxazol-5-yl]-5-methoxy-1H-pyrrolo[2,3-b]pyridine] | < 200 | < 200 | 200 to 1000 |
| Fc1cccc(-c2cnoc2-c2c[nH]c3ncccc23)c1F [Compound 1, 3-[4-(2,3-Difluoro-phenyl)-isoxazol-5-yl]-1H-pyrrolo[2,3-b]pyridine] | 200 to 1000 | 1000 to 12500 | 1000 to 12500 |
| COC(=O)c1cnc2[nH]cc(-c3oncc3-c3cccc(F)c3F)c2c1 [Compound 105, 3-[4-(2,3-Difluoro-phenyl)-isoxazol-5-yl]-1H-pyrrolo[2,3-b]pyridine-5-carboxylic acid methyl ester] | < 200 | 200 to 1000 | 200 to 1000 |
| CN(C)c1ccc(-c2cnc3[nH]cc(-c4nncn4-c4cccc(F)c4F)c3c2)cc1 [Compound 106, (4-{3-[4-(2,3-Difluoro-phenyl)-4H-[1,2,4]triazol-3-yl]-1H-pyrrolo[2,3-b]pyridin-5-yl}-phenyl)-dimethyl-amine] | 200 to 1000 | 200 to 1000 | < 200 |
| Clc1cccc(-c2cnoc2-c2c[nH]c3ncccc23)c1Cl [Compound 2, 3-[4-(2,3-Dichloro-phenyl)-isoxazol-5-yl]-1H-pyrrolo[2,3-b]pyridine] | 200 to 1000 | 200 to 1000 | 1000 to 12500 |
| Fc1cccc(-c2cnoc2-c2c[nH]c3ncc(-c4ccc(CN5CCCC5)cc4)cc23)c1F [Compound 93, 3-[4-(2,3-Difluoro-phenyl)-isoxazol-5-yl]-5-(4-pyrrolidin-1-ylmethyl-phenyl)-1H-pyrrolo[2,3-b]pyridine] | < 200 | < 200 | 200 to 1000 |
| CN1CCN(Cc2ccc(-c3cnc4[nH]cc(-c5oncc5-c5cccc(F)c5F)c4c3)cc2)CC1 [Compound 94, 3-[4-(2,3-Difluoro-phenyl)-isoxazol-5-yl]-5-[4-(4-methyl-piperazin-1-ylmethyl)-phenyl]-1H-pyrrolo[2,3-b]pyridine] | < 200 | < 200 | 200 to 1000 |
| Fc1cccc(-c2cnoc2-c2c[nH]c3ncc(-c4cncnc4)cc23)c1F [Compound 85, 3-[4-(2,3-Difluoro-phenyl)-isoxazol-5-yl]-5-pyrimidin-5-yl-1H-pyrrolo[2,3-b]pyridine] | 200 to 1000 | 1000 to 12500 | 1000 to 12500 |
| C=Cc1cnc2[nH]cc(-c3oncc3-c3cccc(F)c3F)c2c1 [Compound 66, 3-[4-(2,3-Difluoro-phenyl)-isoxazol-5-yl]-5-vinyl-1H-pyrrolo[2,3-b]pyridine] | < 200 | < 200 | 200 to 1000 |
| Clc1cccc(-c2cnoc2-c2c[nH]c3ncc(-c4cccnc4)cc23)c1Cl [Compound 99, 3-[4-(2,3-Dichloro-phenyl)-isoxazol-5-yl]-5-pyridin-3-yl-1H-pyrrolo[2,3-b]pyridine] | < 200 | < 200 | < 200 |
